# Assay results published in publication PMC8476002, “Bergamottin a CYP3A inhibitor found in grapefruit juice inhibits prostate cancer cell growth by downregulating androgen receptor signaling and promoting G0/G1 cell cycle block and apoptosis” (PLoS ONE, 2021).
# pIC50: −log10 of the molar value.
# Tests used:
# [1] = tested on: LNCaP cells; test: MTT growth assay, LNCaP; type: cell-based; settings: Homo sapiens
# Experimental: Growth of the cells was measured using a MTT assay. Cells were plated (2000 cells/ 96 well or 13,000 cells/ 24 well) for 48 hours then treated with bergamottin for 4 days (96 hours) and then incubated with MTT (3-(4,5-Dimethylthiazol- 2-yl)-2,5-Diphenyltetrazolium bromide) (4 mg/ml) for 2 h. at 37°C. DMSO (vehicle control for bergamottin) levels were compensated in each bergamottin treatment group. Cells were centrifuged at 2000 g for 10 min and the supernatant was discarded. The cell pellet was dissolved in 100/500 μl of DMSO depending on the well size. A plate reader was used to read the absorption at 540 nm. Experiments were performed in octuplet/quadruplet and repeated at least three times.
# [2] = tested on: LNCaP cells; test: Clonogenic assay, LNCaP; type: cell-based, human; settings: 5μM and 10μM, 3 weeks
# Experimental: (§1) For clonogenic assay, cells were plated in 6 well plates (10,000 cells) for 48 h and then treated with indicated amounts of bergamottin and vehicle control (DMSO). After 3 weeks, the colonies were fixed, stained (0.75% crystal violet, 50% ethanol and 1.75% formaldehyde) and counted. The assay was repeated three times.
# [3] = tested on: MDAPCa2b cells; test: Clonogenic assay, MDAPCa2b; type: cell-based, human; settings: 5μM and 10μM, 3 weeks
# Experimental: as §1
# [4] = tested on: total AR in MDAPCa2b cells; test: Western blotting of total AR, MDAPCa2b; type: cell-based, human; settings: bergamottin 10μM, CSSM
# Experimental: (§2) Cells were plated at 25–30% confluence when maintained in complete media. When the cells required DHT tretment and media replacement to charcoal stripped serum media (CSSM) they were plated at 35–40% confluence. Bergamottin is dissolved in DMSO (vehicle control) and the amount of DMSO at each treatment group was kept constant. After the completion of the treatment cells were washed in phosphate buffer (PBS) containing 2mMEDTA and 2mM EGTA and lysed in RIPA buffer (50 mM TRIS, 150 mM NaCl, 1% NP40, 0.5% sodium deoxycholate, 0.1% SDS, 2mM EDTA, 2mM EGTA) supplemented with protease and phosphatase inhibitors for total protein isolation. Protein estimation was performed using micro BCA assay and equal protein amponts were loaded on SDS-PAGE gels for western analysis. GAPDH was used as an internal control for total protein. Infrared fluorescent-labeled secondary antibodies were used for detection using Odyssey CLx. The bands were quantified using Odyssey software, which calculates pixel density and automatically takes an area adjacent to each band for background corrections.
# [5] = tested on: nuclear AR in LNCaP cells; test: Cell fractionation, AR nuclear localization, LNCaP; type: cell-based, human; settings: bergamottin 10μM, with and without DHT induction
# Experimental: as §2
# Nuclear and cytoplasmic cell fractionation was prepared using NE-PER Nuclear and cytoplasmic extraction kit from Thermo Scientific (Cat no.78833) and manufacturer’s instructions were followed. […]
# [6] = tested on: AR nuclear localization in LNCaP cells; test: Confocal microscopy of AR nuclear localization, LNCaP; type: cell-based, human; settings: bergamottin 10μM, versus DMSO
# Experimental: Cells were seeded into 35 mm Glass bottom dish (Cellvis catalog# D35C4-20-1.5-N) in complete media; media was changed to CSSM prior to DHT treatment. The cells were fixed in 4% paraformaldehyde for 20 minutes and permeabilized using permeabilizing buffer (0.2% Tween 20 in PBS) for 5 minutes. Cells were blocked using 10% goat serum diluted in permeabilizing buffer with 1% BSA for 15 minutes. Primary antibodies were diluted at 1:100 in staining buffer (1% BSA in PBS) and incubated for 2 hours at room temperature. Cells were washed three times (5 minutes each) in PBS. Secondary antibodies, TRITC-conjugated Donkey Anti-rabbit (711-025-152) was from Jackson immuno research, West Grove, PA was diluted at 1:100 in staining buffer and incubated for 60 minutes at room temperature. Cells were washed three times (5 minutes) in PBS and stained with 1 μg/mL DAPI (4’, 6-diamidino-2-phenylindole) in PBS for 5 minutes at room temperature. The cells were stored in PBS at 4°C until imaging was completed.
# Cells were imaged using confocal laser scanning microscopy on a Nikon A1R using a galvano scanner and a 60× Apo-TIRF oil immersion objective. NIS Elements software form Nikon was used for recording the data.
# [7] = tested on: PSA in MDAPCa2b cells; test: Western blotting of PSA, MDAPCa2b; type: cell-based, human; settings: 10μM, 96 hours
# Experimental: as §2
# [8] = tested on: MDAPCa2b cells; test: TUNEL apoptosis detection assay, MDAPCa2b; type: cell-based, human; settings: 10μM, 4 days
# Experimental: To detect apoptosis in the cells after bergamottin treatment In Situ cell death detection kit from Sigma-Aldrich (St. Louis, MO) was used. This apoptosis detection kit fluorescently labels the single and double-stranded DNA breaks caused due to apoptosis using terminal deoxynucleotidyl transferase (TUNEL-reaction). The cells were plated in poly- D- lysine coated 35 mm Glass bottom dish (Cellvis catalog# D35C4-20-1.5-N), treated with bergamottin for the specified time, and dosage and then stained with the kit reagents. The kit recommended protocol was followed. After the staining, the confocal microscope was used to procure images of the cells. The TUNEL assay preferentially labels apoptosis in comparison to necrosis and positive apoptosis is recognized when cells incorporate fluorescent labelled nucleotide (Ex 450 to 500nm and Em 515 to 565-green).
# [9] = tested on: several other cancer cell types; set-up: method as in PMID 25130169, PMID 27222242, PMID 10552768, PMID 28726768, PMID 26911804; settings: read-out: IC50 for growth of several other cancer cell types; cited from earlier work
smiles,measurement,setting,value
CC(C)=CCC/C(C)=C/COc1c2ccoc2cc2oc(=O)ccc12 [bergamottin],inhibition at 10 µM,[1]; 10μM,60%
same,pIC50,"[1]; treatment 96 hours (methods) / 120 hours (Fig 1 legend), read-out: bergamottin concentration giving 50% growth reduction",5.62
same,number of colonies,[2],significantly reduced the number of colonies
same,number of colonies,[3],significantly reduced the number of colonies
same,downregulation of total AR levels,[4],50%
same,nuclear translocation of AR (cell fractionation),[5],inhibited nuclear translocation of AR
same,active AR migration to the nucleus with DHT induction (confocal),[6],significantly reduced
same,PSA levels,[7],significantly reduced PSA levels
same,"DNA breaks (TUNEL, apoptosis)",[8],increased DNA breaks
same,pIC50,[9],4.00 to 4.52
